As usually defined, the IC50 is the point on the concentration scale where inhibition reaches its midpoint. Low values mean greater potency, high ones weaker potency.

This is an account of results in ChEMBL document CHEMBL1126157, “QSAR analyses of the substituted indanone and benzylpiperidine rings of a series of indanone-benzylpiperidine inhibitors of acetylcholinesterase” (J Med Chem, 1992).

In assay [1] the target is T1, Acetylcholinesterase (Homo sapiens, UniProt P22303).
Assay [2] deals with T1, Acetylcholinesterase. This is another data set of the same source.
Description: Inhibition of acetylcholinesterase.
In assay [3] the target is T1, Acetylcholinesterase. The source holds these as a separate data set.
Assay [4] deals with T1, Acetylcholinesterase. This is another data set of the same source.
Description: Inhibition of acetylcholinesterase.

Structures are written as SMILES.

T1 sequence (P22303 whole entry): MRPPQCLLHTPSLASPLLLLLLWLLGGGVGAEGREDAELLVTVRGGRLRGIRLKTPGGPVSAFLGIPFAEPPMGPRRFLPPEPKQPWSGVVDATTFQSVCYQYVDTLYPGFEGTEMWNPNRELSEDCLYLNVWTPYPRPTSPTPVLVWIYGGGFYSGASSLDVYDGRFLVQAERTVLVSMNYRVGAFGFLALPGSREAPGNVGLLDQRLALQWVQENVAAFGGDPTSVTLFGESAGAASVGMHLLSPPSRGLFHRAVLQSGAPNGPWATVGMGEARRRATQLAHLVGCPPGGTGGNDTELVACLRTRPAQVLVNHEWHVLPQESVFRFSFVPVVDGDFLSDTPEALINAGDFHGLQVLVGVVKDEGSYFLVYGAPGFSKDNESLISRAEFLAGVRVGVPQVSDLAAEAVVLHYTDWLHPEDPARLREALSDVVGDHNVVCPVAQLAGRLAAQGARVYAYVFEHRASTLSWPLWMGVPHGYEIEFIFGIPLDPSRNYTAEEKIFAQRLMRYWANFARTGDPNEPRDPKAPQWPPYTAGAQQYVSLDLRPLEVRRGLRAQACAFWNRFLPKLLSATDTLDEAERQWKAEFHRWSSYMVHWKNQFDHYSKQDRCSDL

On to `COc1cc2c(c(OC)c1)C(=O)C(C)C2` (stereo not given), for which the IC50 on Acetylcholinesterase [1] was 380 nM; against Acetylcholinesterase [2], 25.1 nM.
Turning to `COc1cc2c(cc1OC(C)C)CC(C)C2=O` (stereo not given), the IC50 against Acetylcholinesterase [1] is 380 nM; on Acetylcholinesterase [2] it was 8.91 nM.
Consider `COc1cc2c(cc1OC)C(=O)C(C)C2` (stereo not given), for which the IC50 was 380 nM against Acetylcholinesterase [1] and 5.25 nM against Acetylcholinesterase [2].
For `CC1Cc2ccccc2C1=O` (stereo not given) the same measures were 380 nM and 148 nM.
For the compound `COc1ccc2c(c1OC)CC(C)C2=O` (stereo not given), the IC50 was 380 nM on Acetylcholinesterase [1] and 20 nM against Acetylcholinesterase [2].
Turning to `CC1Cc2ccc(F)cc2C1=O` (stereo not given), the half-maximal inhibitory concentration (IC50) against Acetylcholinesterase [1] was 380 nM; against Acetylcholinesterase [2], 200 nM.
Consider `COc1cc2c(cc1O)CC(C)C2=O` (stereo not given), for which the IC50 against Acetylcholinesterase [1] and against Acetylcholinesterase [2] was 380 nM in each case.
Turning to `COc1cc(C)cc(OC)c1OC`, the IC50 against Acetylcholinesterase [3] and against Acetylcholinesterase [4] was 4900 nM each time.
On to `Cc1ccc2c(c1)C(=O)C(C)C2` (stereo not given), for which the IC50 against Acetylcholinesterase [1] is 380 nM; on Acetylcholinesterase [2], 69.2 nM.
For the compound `CCOc1cc2c(cc1OCC)C(=O)C(C)C2` (stereo not given), the concentration for half-maximal inhibition (IC50) on Acetylcholinesterase [1] is 380 nM; at Acetylcholinesterase [2], 6.31 nM.
`COc1ccc(C)cc1OC`: the IC50 on Acetylcholinesterase [3] was 4900 nM; at Acetylcholinesterase [4] it was 3980 nM.
For `Cc1cccc(F)c1` the same measures were 4900 nM and 1 nM.
Regarding `Cc1ccc(F)cc1`, the 50% inhibitory concentration (IC50) was 4900 nM on Acetylcholinesterase [3] and 9.55 nM against Acetylcholinesterase [4].
For `COc1ccc2c(c1)C(=O)C(C)C2` (stereo not given), the concentration for half-maximal inhibition (IC50) was 380 nM against Acetylcholinesterase [1] and 81.3 nM against Acetylcholinesterase [2].
The corresponding values for `COc1cc2c(cc1O)C(=O)C(C)C2` (stereo not given) are 380 nM and 1.32 nM.
For `COc1cccc(C)c1`, the concentration for half-maximal inhibition (IC50) at Acetylcholinesterase [3] is 4900 nM; against Acetylcholinesterase [4], 219 nM.
Consider `COc1ccc2c(c1OC)C(=O)C(C)C2` (stereo not given), for which the IC50 against Acetylcholinesterase [1] is 380 nM; at Acetylcholinesterase [2] it was 87.1 nM.
In the case of `Cc1ccccc1F`, the IC50 is 4900 nM at Acetylcholinesterase [3] and 9.55 nM against Acetylcholinesterase [4].
`Cc1cccc2c1CC(C)C2=O` (stereo not given): the IC50 was 380 nM against Acetylcholinesterase [1] and 7.08 nM against Acetylcholinesterase [2].
`COc1cccc2c1CC(C)C2=O` (stereo not given): the results for the IC50 at Acetylcholinesterase [1] and against Acetylcholinesterase [2] were 380 nM and 12 nM, respectively.
On to `CC1Cc2cc3c(cc2C1=O)OCO3` (stereo not given), for which the figures for the IC50 on Acetylcholinesterase [1] and against Acetylcholinesterase [2] were 380 nM and 22.9 nM, respectively.
For `COc1ccc(OC)c2c1CC(C)C2=O` (stereo not given) the same measures were 380 nM and 36.3 nM.
For `COc1cc2c(c(OC)c1OC)C(=O)C(C)C2` (stereo not given) the same measures were 380 nM and 13.2 nM.
As for `Cc1ccc([N+](=O)[O-])cc1` [4-NITROTOLUENE], the half-inhibitory concentration (IC50) at Acetylcholinesterase [3] was 4900 nM; on Acetylcholinesterase [4], 100 nM.
The corresponding values for `Cc1cccc(C)c1` [M-XYLENE] are 4900 nM and 2 nM.
Take `Cc1cccc(O)c1` [METACRESOL]: the IC50 at Acetylcholinesterase [3] was 4900 nM; against Acetylcholinesterase [4], 45.7 nM.
With `Cc1ccccc1C` [O-XYLENE], the half-inhibitory concentration (IC50) on Acetylcholinesterase [3] was 4900 nM; against Acetylcholinesterase [4] it was 10 nM.
Take `Cc1ccc(C)cc1` [P-XYLENE]: the half-inhibitory concentration (IC50) was 4900 nM against Acetylcholinesterase [3] and 39.8 nM at Acetylcholinesterase [4].
With `Cc1ccccc1` [TOLUENE], the IC50 against Acetylcholinesterase [3] is 4900 nM; on Acetylcholinesterase [4] it was 5.25 nM.
`Cc1ccc(O)cc1` [p-CRESOL]: the figures for the half-inhibitory concentration (IC50) against Acetylcholinesterase [3] and against Acetylcholinesterase [4] were 4900 nM and 1.82 nM, respectively.
